Source: patent US10703764B2, “Benzopiperazine compositions as BET bromodomain inhibitors” (FORMA Therapeutics, Inc., priority 2013, dated 2020)
pIC50: −log10 of the molar value.

Legend:
[1] = molecular target: T1, BRD4 BD1 (Homo sapiens, UniProt O60885); experiment: AlphaScreen binding assay, BRD4 Bromodomain 1
T1 construct: made in house
Procedure, shortened: (§1)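 Compound dilution series were mixed with His-tagged BRD4 bromodomain and biotinylated tetra-acetylated H4 (1-21) peptide at pH 7.3 (BD1 and peptide at 50 nM, BD2 and peptide at 100 nM). Donor and acceptor beads were then added, and plates were equilibrated at least 1 h before reading. IC50 values were fitted with a four-parameter logistic model.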

[2] = tested on: MV4-11 cells; experiment: Oncology cell growth assay (3-day proliferation, CellTiter-Glo); type: cell-based; details: Homo sapiens, MV4-11, 72 h, AML cell line MV4-11, 72 hours, compounds grouped by IC50 range, read-out: MV4-11 IC50 (inhibition of proliferation, gIC50)
Description: The impact of Example compounds on cancer cell proliferation was determined using the acute myelocytic leukemia (AML) cell line MV4-11 (ATCC) in a 3-day proliferation assay. MV4-11 cells were maintained in RPMI 1640 media supplemented with 10% FBS at 37° C. and an atmosphere of 5% CO2. For compound testing, compound dilutions series were prepared in DMSO via a 3-fold serial dilution from 2 mM to 0.001 mM in 384-well white flat bottom plates. The final compound concentrations in the wells were 10, 3.3, 1.1, 0.37, 0.12, 0.041, 0.013 and 0.0045 μM. MV4-11 cells were plated at a density of 3000 cells/well in final volume of 50 μl culture media and incubated for 72 hours. […] Luminescent signal from the CellTiter-Glo assay was read on an EnVision multilabel plate reader (PerkinElmer). Values for the concentration that inhibited cell growth by 50% (gIC50) between the DMSO control and background control (no cells) were determined using IDBS Activity Base software with a four parameter logistic curve fit by the equation y=A+((B−A)/(1+((C/x)^D))), wherein A denotes the bottom plateau of the curve, B denotes the top plateau of the curve, C denotes the x value at the middle of the curve, D denotes the slope factor, x denotes the original known x values, and y denotes the original known y values. Data was fitted using the Levenburg Marquardt algorithm.

[3] = molecular target: T2, BRD4 BD2 (Homo sapiens, UniProt O60885); experiment: AlphaScreen binding assay, BRD4 Bromodomain 2
T2 construct: made in house
Procedure, shortened: as §1

Row | SMILES | pIC50 [1] | pIC50 [2] | pIC50 [3]
1 | CC(=O)N1c2ccc(-c3cnn(C4CN[C@H]4C)c3)cc2N(C(=O)C2CC2)C[C@@H]1C (stereo partly drawn) [Example I-160, 1-[(2S)-4-cyclopropanecarbonyl-2-methyl-6-{1-[(2S)-2-methylazetidin-3-yl]-1H-pyrazol-4-yl}-1,2,3,4-tetrahydroquinoxalin-1-yl]ethan-1-one] | 6.00 to 7.00 | > 7.00 | –
2 | CC(=O)N1c2ccc(-c3cncc(F)c3)cc2N(C(=O)c2ccco2)C[C@@H]1C [Example I-830] | 5.00 to 6.00 | – | 6.30 to 7.30
3 | CC(=O)N1c2ccc(-c3ccns3)cc2N(C(=O)c2ccco2)C[C@@H]1C [Example I-434] | 5.00 to 6.00 | – | 6.30 to 7.30
4 | CC(=O)N1c2ccc(-c3cnc(N)cn3)cc2N(C(=O)C2CC2)C[C@@H]1C [Example I-441] | 6.00 to 7.00 | – | 6.30 to 7.30
5 | CC(=O)N1c2ccc(-c3ccc(S(C)(=O)=O)cc3)cc2N(C(=O)C(C)C)C[C@@H]1C [Example I-242] | < 5.00 | – | < 6.30
6 | CC(=O)N1c2ccc(NCc3ccccc3)cc2N(C(=O)c2ccco2)C[C@@H]1C [Example I-989] | 5.00 to 6.00 | – | 6.30 to 7.30
7 | COc1ccc(Cl)c(OC(=O)N2C[C@H](C)N(C(C)=O)c3ccc(-c4cnn(C5CC5)c4)cc32)c1 [Example I-531] | 5.00 to 6.00 | – | 6.30 to 7.30
8 | CC(=O)N1c2ccc(-c3cccc(-n4cccn4)c3)cc2N(C(=O)c2ccco2)C[C@@H]1C [Example I-853] | 6.00 to 7.00 | – | > 7.30
9 | CC(=O)N1c2ccc(-c3cnn(C4CC4)c3)cc2N(C(=O)Oc2ccc(C)cc2C)C[C@@H]1C [Example I-516] | 5.00 to 6.00 | – | 6.30 to 7.30
10 | COc1ccc(C(=O)N2C[C@H](C)N(C(C)=O)c3ccc(-c4ccc(S(C)(=O)=O)cc4)cc32)cc1 [Example I-877] | 5.00 to 6.00 | – | 6.30 to 7.30
11 | CC(=O)N1c2ccccc2N(S(=O)(=O)c2ccccc2)C[C@@H]1C [Example I-932] | < 5.00 | – | < 6.30
12 | CC(=O)N1c2ccc(-c3ccnc(C(F)(F)F)c3)cc2N(C(=O)c2ccco2)C[C@@H]1C [Example I-861] | 5.00 to 6.00 | – | 6.30 to 7.30
13 | C[C@H]1CN(C(=O)C2CC2)c2cc(-c3ccc(S(=O)(=O)CCO)cc3)ccc2N1C(=O)C1CC1 [Example I-450] | 5.00 to 6.00 | – | 6.30 to 7.30
14 | C[C@H]1CN(C(=O)C2CC2)c2cc(-c3ccc(S(=O)(=O)CCN)cc3)ccc2N1C(=O)C1CC1 [Example I-448] | 6.00 to 7.00 | – | > 7.30
15 | CC(=O)N1c2ccccc2N(C(=O)c2cccc3[nH]ccc23)CC1C (stereo not shown) [Example I-770] | < 5.00 | – | < 6.30
16 | CC(=O)N1c2ccccc2N(C(=O)c2ccc3ncsc3c2)C[C@@H]1C [Example I-724] | < 5.00 | – | < 6.30
17 | COc1ncc(C)cc1OC(=O)N1C[C@H](C)N(C(C)=O)c2ccc(-c3cnn(C4CC4)c3)cc21 [Example I-1210] | 5.00 to 6.00 | – | 6.30 to 7.30
18 | CC(=O)N1c2ccccc2N(C(=O)c2cccs2)C[C@@H]1C [Example I-745] | < 5.00 | – | < 6.30
19 | CC(=O)N1c2ccccc2N(S(=O)(=O)c2ccccc2C#N)C[C@@H]1C [Example I-943] | < 5.00 | – | < 6.30
20 | C[C@H]1CN(C(=O)C2CC2)c2cc(-c3ccc(CS(N)(=O)=O)cc3)ccc2N1C(=O)C1CC1 [Example I-446] | 6.00 to 7.00 | – | 6.30 to 7.30
21 | CC(=O)N1c2ccccc2N(C(=O)c2cc(C)on2)C[C@@H]1C [Example I-722] | < 5.00 | – | < 6.30
22 | CC(=O)N1c2ccc(-c3cncnc3)cc2N(C(=O)c2ccco2)C[C@@H]1C [Example I-821] | < 5.00 | – | 6.30 to 7.30
23 | CC(=O)N1c2ccccc2N(C(=O)c2ccc(-n3cccn3)cc2)C[C@@H]1C [Example I-723] | < 5.00 | – | < 6.30
24 | CC(=O)N1c2ccc(-c3ccc(S(C)(=O)=O)cc3)cc2N(C(=O)OC2CCC(F)(F)CC2)C[C@@H]1C [Example I-32, (S)-4,4-difluorocyclohexyl 4-acetyl-3-methyl-7-(4-(methylsulfonyl)phenyl)-3,4-dihydroquinoxaline-1(2H)-carboxylate] | 6.00 to 7.00 | – | > 7.30
25 | COC(=O)N1c2ccc(-c3cnc(N)cn3)cc2N(C(=O)C2CC2)C[C@@H]1C [Example I-458] | 5.00 to 6.00 | – | 6.30 to 7.30

Row | SMILES | pIC50 [1] | pIC50 [2] | pIC50 [3]
26 | CC(=O)N1c2ccc(-c3ccc4nnc(C)n4c3)cc2N(C(=O)c2ccco2)C[C@@H]1C [Example I-393] | 5.00 to 6.00 | – | 6.30 to 7.30
27 | CCNC(=O)Cn1cc(-c2ccc3c(c2)N(C(=O)C2CC2)CC(C)N3C(C)=O)cn1 (stereo not shown) [Example I-681] | 5.00 to 6.00 | – | 6.30 to 7.30
28 | COC(=O)N1c2ccc(-c3cnn(CCO)c3)cc2N(C(=O)Oc2ccc(F)cc2)C[C@@H]1C [Example I-1022] | 5.00 to 6.00 | – | 6.30 to 7.30
29 | CC(=O)N1c2ccc(-c3cccc4cnn(C)c34)cc2N(C(=O)c2ccco2)C[C@@H]1C [Example I-842] | < 5.00 | – | < 6.30
30 | CC(=O)N1c2ncc(-c3ccc(S(C)(=O)=O)cc3)cc2N(C(=O)c2ccco2)C[C@@H]1C [Example I-271] | 5.00 to 6.00 | – | 6.30 to 7.30
31 | CC(=O)N1c2ccccc2N(C(=O)c2cnn(-c3ccccc3)c2C(F)(F)F)C[C@@H]1C [Example I-756] | < 5.00 | – | < 6.30
32 | CC(=O)N1c2ccc(-c3cnn(C4CC4)c3)cc2N(C(=O)Oc2ccc(C#N)cc2Cl)C[C@@H]1C [Example I-528] | 5.00 to 6.00 | – | 6.30 to 7.30
33 | CC(=O)N1c2ccc(-c3cnn(CCC(=O)O)c3)cc2N(C(=O)C2CC2)C[C@@H]1C [Example I-136, (S)-3-(4-(1-acetyl-4-(cyclopropanecarbonyl)-2-methyl-1,2,3,4-tetrahydroquinoxalin-6-yl)-1H-pyrazol-1-yl)propanoic acid] | 5.00 to 6.00 | – | 6.30 to 7.30
34 | COC(=O)N1c2ccc(-c3ccc(S(C)(=O)=O)cc3)cc2N(C(=O)Oc2ccccn2)C[C@@H]1C [Example I-1315] | 5.00 to 6.00 | – | 6.30 to 7.30
35 | COC(=O)N1c2ccc(-c3ccc(NS(C)(=O)=O)cc3)cc2N(C(=O)Oc2cccnc2)C[C@@H]1C [Example I-1278] | 5.00 to 6.00 | – | < 6.30
36 | COc1ccc(OC)c(S(=O)(=O)N2C[C@H](C)N(C(C)=O)c3ccccc32)c1 [Example I-930] | < 5.00 | – | < 6.30
37 | C[C@H]1CN(C(=O)c2ccco2)c2cc(-c3ccc(S(C)(=O)=O)cc3)ccc2N1C(N)=O [Example I-987] | < 5.00 | – | < 6.30
38 | CC(=O)N1c2ccc(-c3ccc(C(=O)NCCN)cc3)cc2N(C(=O)C2CC2)C[C@@H]1C [Example I-451] | 6.00 to 7.00 | – | 6.30 to 7.30
39 | CC(=O)N1c2ccccc2N(S(=O)(=O)c2ccc(Cl)cc2)C[C@@H]1C [Example I-935] | < 5.00 | – | < 6.30
40 | CC(=O)N1c2ccc(-c3ccc(S(C)(=O)=O)cc3)cc2N(C)C[C@@H]1C [Example I-104, (S)-1-(2,4-dimethyl-6-(4-(methylsulfonyl)phenyl)-3,4-dihydroquinoxalin-1(2H)-yl)ethanone] | < 5.00 | – | < 6.30
41 | CC(=O)N1c2ccc(-c3cnn(CC(N)=O)c3)cc2N(C(=O)C2CC2)C[C@@H]1C [Example I-655] | 5.00 to 6.00 | – | 6.30 to 7.30
42 | CC(=O)N1c2ccc(-c3cccc(-c4nnc(C)o4)c3)cc2N(C(=O)c2ccco2)C[C@@H]1C [Example I-854] | 5.00 to 6.00 | – | 6.30 to 7.30
43 | CC(=O)N1c2ccc(-c3ccc(S(C)(=O)=O)cc3)cc2N(C(=O)c2cn3ccncc3n2)C[C@@H]1C [Example I-779] | < 5.00 | – | < 6.30
44 | CC(=O)N1c2ccccc2N(C(=O)Cc2cccc(C(F)(F)F)c2)C[C@@H]1C [Example I-710] | < 5.00 | – | < 6.30
45 | CC(=O)N1c2ccc(-c3ccc(S(C)(=O)=O)cc3)cc2N(C(=O)c2cc3ccc(Cl)cc3[nH]2)CC1C (stereo not shown) [Example I-787] | 5.00 to 6.00 | – | 6.30 to 7.30
46 | CC(=O)N1c2ccc(-c3ccc(S(C)(=O)=O)cc3)cc2N(C(=O)c2ccc(S(C)(=O)=O)o2)C[C@@H]1C [Example I-888] | < 5.00 | – | < 6.30
47 | CC(=O)N1c2ccc(-c3ccc(-c4nnco4)cc3)cc2N(C(=O)c2ccco2)C[C@@H]1C [Example I-416] | 5.00 to 6.00 | – | > 7.30
48 | COC(=O)N1c2ccc(-c3cnn(C(C)(C)CO)c3)cc2N(C(=O)Oc2ccccn2)C[C@@H]1C [Example I-1313] | 5.00 to 6.00 | – | 6.30 to 7.30
49 | CC(=O)N1c2ccccc2N(Cc2cccnc2)C[C@@H]1C [Example I-924] | < 5.00 | – | < 6.30
50 | COC(=O)N1c2ccc(-c3ccc(N4CCCS4(=O)=O)cc3)cc2N(C(=O)Oc2cccnc2)C[C@@H]1C [Example I-1287] | 5.00 to 6.00 | – | < 6.30
